Tested on: HIV-1IIIB
Assay: Two-drug combination antiviral assay in CEM cells (CPE), MacSynergy II
Format: cell-based
Conditions: for Antagonism Volume, Result 1 / Antagonism Volume, Result 2 / Antagonism Volume, Result 3 / Mean Antagonism Volume (n = 3) / Mean Synergy Volume (n = 3) / Synergy Volume, Result 1 / Synergy Volume, Result 2 / Synergy Volume, Result 3: in combination with CMX157, CEM-SS cells, 95% confidence; for Interpretation of Antiviral Results (MacSynergy): two-drug combination (with CMX157; control d4T/RBV), CEM-SS cells

| Compound | Antagonism Volume, Result 1 | Antagonism Volume, Result 2 | Antagonism Volume, Result 3 | Mean Antagonism Volume (n = 3) | Mean Synergy Volume (n = 3) | Synergy Volume, Result 1 | Synergy Volume, Result 2 | Synergy Volume, Result 3 | Interpretation of Antiviral Results (MacSynergy) |
| --- | --- | --- | --- | --- | --- | --- | --- | --- | --- |
| Cc1c(O)cccc1C(=O)N[C@@H](CSc1ccccc1)[C@H](O)CN1C[C@H]2CCCC[C@H]2C[C@H]1C(=O)NC(C)(C)C [Nelfinavir (NFV), nelfinavir] | 0 nM^2 %, μM^2 % or nMμM % | 0 nM^2 %, μM^2 % or nMμM % | 0 nM^2 %, μM^2 % or nMμM % | 0 nM^2 %, μM^2 % or nMμM % | 80.9 nM^2 %, μM^2 % or nMμM % | 32.1 nM^2 %, μM^2 % or nMμM % | 85.1 nM^2 %, μM^2 % or nMμM % | 125 nM^2 %, μM^2 % or nMμM % | slightly synergistic |
| Cc1ccnc2c1NC(=O)c1cccnc1N2C1CC1 [Nevirapine (NVP), nevirapine] | 0 nM^2 %, μM^2 % or nMμM % | 0 nM^2 %, μM^2 % or nMμM % | 0/0 nM^2 %, μM^2 % or nMμM % | 0 nM^2 %, μM^2 % or nMμM % | 38.5 nM^2 %, μM^2 % or nMμM % | 74.1 nM^2 %, μM^2 % or nMμM % | 41.5 nM^2 %, μM^2 % or nMμM % | 0/0 nM^2 %, μM^2 % or nMμM % | – |
| Cc1nnc(C(=O)NC(C)(C)c2nc(C(=O)NCc3ccc(F)cc3)c(O)c(=O)n2C)o1 [Raltegravir (RAL), raltegravir] | 0 nM^2 %, μM^2 % or nMμM % | 0 nM^2 %, μM^2 % or nMμM % | 0 nM^2 %, μM^2 % or nMμM % | 0 nM^2 %, μM^2 % or nMμM % | 34.3 nM^2 %, μM^2 % or nMμM % | 18.4 nM^2 %, μM^2 % or nMμM % | 1.92 nM^2 %, μM^2 % or nMμM % | 82.6 nM^2 %, μM^2 % or nMμM % | – |
| CC(C)c1nc(CN(C)C(=O)N[C@H](C(=O)N[C@@H](Cc2ccccc2)C[C@H](O)[C@H](Cc2ccccc2)NC(=O)OCc2cncs2)C(C)C)cs1 [Ritonavir (RTV), ritonavir] | 0 nM^2 %, μM^2 % or nMμM % | 0 nM^2 %, μM^2 % or nMμM % | −2.61 nM^2 %, μM^2 % or nMμM % | 0 nM^2 %, μM^2 % or nMμM % | 66.4 nM^2 %, μM^2 % or nMμM % | 47.5 nM^2 %, μM^2 % or nMμM % | 38.0 nM^2 %, μM^2 % or nMμM % | 116 nM^2 %, μM^2 % or nMμM % | slightly synergistic |
| CC(C)(C)NC(=O)[C@@H]1C[C@@H]2CCCC[C@@H]2CN1C[C@@H](O)[C@H](Cc1ccccc1)NC(=O)[C@H](CC(N)=O)NC(=O)c1ccc2ccccc2n1 [Saquinavir (SQV), saquinavir] | −2.54 nM^2 %, μM^2 % or nMμM % | −0.81 nM^2 %, μM^2 % or nMμM % | 0 nM^2 %, μM^2 % or nMμM % | −1.12 nM^2 %, μM^2 % or nMμM % | 45.2 nM^2 %, μM^2 % or nMμM % | 123 nM^2 %, μM^2 % or nMμM % | 8.35 nM^2 %, μM^2 % or nMμM % | 3.93 nM^2 %, μM^2 % or nMμM % | – |
| CCC[C@@]1(CCc2ccccc2)CC(O)=C([C@H](CC)c2cccc(NS(=O)(=O)c3ccc(C(F)(F)F)cn3)c2)C(=O)O1 [Tipranavir (TPV), tipranavir] | 0 nM^2 %, μM^2 % or nMμM % | −8.60 nM^2 %, μM^2 % or nMμM % | 0 nM^2 %, μM^2 % or nMμM % | −2.87 nM^2 %, μM^2 % or nMμM % | 52.2 nM^2 %, μM^2 % or nMμM % | 110 nM^2 %, μM^2 % or nMμM % | 29.4 nM^2 %, μM^2 % or nMμM % | 16.8 nM^2 %, μM^2 % or nMμM % | – |
| Nc1ccn([C@H]2CC[C@@H](CO)O2)c(=O)n1 [Zalcitabine (ddC), 2′,3′-dideoxycytidine] | 0 nM^2 %, μM^2 % or nMμM % | 0 nM^2 %, μM^2 % or nMμM % | −15.9 nM^2 %, μM^2 % or nMμM % | −5.29 nM^2 %, μM^2 % or nMμM % | 122 nM^2 %, μM^2 % or nMμM % | 154 nM^2 %, μM^2 % or nMμM % | 80.0 nM^2 %, μM^2 % or nMμM % | 131 nM^2 %, μM^2 % or nMμM % | highly synergistic |
| enfuvirtide | 0/0 nM^2 %, μM^2 % or nMμM % | 0 nM^2 %, μM^2 % or nMμM % | 0/0 nM^2 %, μM^2 % or nMμM % | 0 nM^2 %, μM^2 % or nMμM % | 1.02 nM^2 %, μM^2 % or nMμM % | 0/0 nM^2 %, μM^2 % or nMμM % | 3.05 nM^2 %, μM^2 % or nMμM % | 0/0 nM^2 %, μM^2 % or nMμM % | – |
